Measurements reported in US7056715B1, “GST sequences from soybean and their use in the production of herbicide resistant plants” (Syngenta Limited, priority 1999, dated 2006).

Columns and labels:
Conditions in all cases: fomesafen 10 g ai ha^-1 to aerial tissue at approximately 10-leaf stage, visual assessment 5 days post application
[1] = test system: Nicotiana tabacum var. Samsun, WT; test: Herbicide tolerance test, wild-type tobacco; type: in vivo
Experimental: 7.1 The binary vector pFT2 was transformed into Agrobacterium tumefaciens strain LBA 4404 using the freeze thaw method of transformation provided by Holsters et al., 1978. Tobacco transformation and whole plant regeneration was performed using Nicotiana tabacum var. Samsun according to standard protocols detailed by Bevan, 1984. Transformation events were selected on MS-media containing kanamycin. Other transformation methods may be employed for the transformation of other crops, such as soybean. Examples of such methods are referred to below.
9.1 Following tissue culture, kanamycin-resistant plantlets were transferred to 5 inch pots containing John Innes potting compost no. 3. The plants were allowed to develop to approximately the 10-leaf stage and fomesafen applied at 10 g ai ha^−1, formulated with non-ionic surfactant, to the aerial tissue using a track sprayer. Visual assessment of phytotoxicity/plant necrosis is performed 5 days post application.

[2] = test system: transgenic tobacco line T82 3740 (pFT2: soybean GST 3.3 and homoglutathione synthetase); test: Herbicide tolerance test, transgenic tobacco line T82 3740; type: in vivo, Nicotiana tabacum
Excerpt: (§1) 6.1 Plants with increased tolerance to the herbicides acifluorfen and fomesafen were obtained by expression in the plant host of both the active soybean GST 3.3 and the homoglutathione synthetase to further increase levels of homoglutathione, required for the enhanced efficiency function of GST 3.3. 6.2 PCR, using oligonucleotide primers hGSH-Nco1 (SEQ ID No. 21) and hGSH-Kpn1 (SEQ ID No.22) was used to introduce a 5′ Nco1 site and 3′ Kpn1 site into the […]. The resulting PCR product was purified, sequenced, digested with Nco1 and Kpn1 and ligated into the vector pMJB2 (FIG. 1). The expression cassette, comprising the double enhanced CaMV35S promoter: Glucanase II leader, hGSH synthetase cDNA and nos terminator was then excised from pMJB2 using […] and ligated into the similarly digested binary vector pMOG800 (FIG. 3). 6.3 Oligonucleotide primers 3.6-Bgl II (SEQ ID No. 23) and 3.6 Nco1 (SEQ ID No.24) were used to introduce Nco1 and Bgl II sites at the 5′ and 3′ end of the GST 3.6 cDNA respectively. The resulting PCR product was purified, sequenced, digested with Nco1 and Bgl II and sub-cloned into the vector pMOG 1051 (FIG. 2). […] Orientation of the insert was determined by PCR. […]

[3] = test system: transgenic tobacco line T82 3747 (pFT2: soybean GST 3.3 and homoglutathione synthetase); test: Herbicide tolerance test, transgenic tobacco line T82 3747; type: in vivo, Nicotiana tabacum
Excerpt: as §1

## CS(=O)(=O)NC(=O)c1cc(Oc2ccc(C(F)(F)F)cc2Cl)ccc1[N+](=O)[O-] [fomesafen]
[1]
  % damage: 55%
[2]
  % damage: 15%
[3]
  % damage: 5%
